Activity calls are given as the source filed them. No rule for the calls is given here.

The subject of this series is CCRIS mutagenicity, Ames/micronucleus/aberration tests. Description: CCRIS mutagenicity studies.
Where [1] appears, read: Test System: AMES SALMONELLA TYPHIMURIUM, Strain/Indicator: TA98, Metabolic Activation: NONE, Method: PREINCUBATION
The mark [2] stands for this setting: Test System: AMES SALMONELLA TYPHIMURIUM, Strain/Indicator: TA100, Metabolic Activation: NONE, Method: PREINCUBATION
Where [3] appears, read: Test System: AMES SALMONELLA TYPHIMURIUM, Strain/Indicator: TA1535, Metabolic Activation: NONE, Method: PREINCUBATION
The mark [4] stands for this setting: Test System: AMES SALMONELLA TYPHIMURIUM, Strain/Indicator: TA1537, Metabolic Activation: NONE, Method: PREINCUBATION
[5] abbreviates: Test System: AMES SALMONELLA TYPHIMURIUM, Strain/Indicator: TA98, Metabolic Activation: NONE, Method: STANDARD PLATE.
Where [6] appears, read: Test System: AMES SALMONELLA TYPHIMURIUM, Strain/Indicator: TA98, Metabolic Activation: RAT, LIVER, S-9, AROCLOR 1254, Method: STANDARD PLATE.
The mark [7] stands for this setting: Test System: AMES SALMONELLA TYPHIMURIUM, Strain/Indicator: TA100, Metabolic Activation: NONE, Method: STANDARD PLATE.
Where [8] appears, read: Test System: AMES SALMONELLA TYPHIMURIUM, Strain/Indicator: TA100, Metabolic Activation: RAT, LIVER, S-9, AROCLOR 1254, Method: STANDARD PLATE.

On to `CCCCOCCOP(=O)(OCCOCCCC)OCCOCCCC`, for which the mutagenic call was “inactive; negative” (Test System: AMES SALMONELLA TYPHIMURIUM, Strain/Indicator: TA98, Metabolic Activation: HAMSTER, LIVER, S-9, AROCLOR 1254, Method: PREINCUBATION); “inactive; negative” under setting [1]; “inactive; negative” (Test System: AMES SALMONELLA TYPHIMURIUM, Strain/Indicator: TA98, Metabolic Activation: RAT, LIVER, S-9, AROCLOR 1254, Method: PREINCUBATION); “inactive; negative” (Test System: AMES SALMONELLA TYPHIMURIUM, Strain/Indicator: TA100, Metabolic Activation: HAMSTER, LIVER, S-9, AROCLOR 1254, Method: PREINCUBATION); “inactive; negative” under setting [2]; “inactive; negative” (Test System: AMES SALMONELLA TYPHIMURIUM, Strain/Indicator: TA100, Metabolic Activation: RAT, LIVER, S-9, AROCLOR 1254, Method: PREINCUBATION). Moreover, the mutagenic call reads like this: (Test System: AMES SALMONELLA TYPHIMURIUM, Strain/Indicator: TA1535, Metabolic Activation: HAMSTER, LIVER, S-9, AROCLOR 1254, Method: PREINCUBATION) “inactive; negative”; under setting [3], “inactive; negative”; (Test System: AMES SALMONELLA TYPHIMURIUM, Strain/Indicator: TA1535, Metabolic Activation: RAT, LIVER, S-9, AROCLOR 1254, Method: PREINCUBATION) “inactive; negative”; (Test System: AMES SALMONELLA TYPHIMURIUM, Strain/Indicator: TA1537, Metabolic Activation: HAMSTER, LIVER, S-9, AROCLOR 1254, Method: PREINCUBATION) “inactive; negative”; under setting [4], “inactive; negative”; (Test System: AMES SALMONELLA TYPHIMURIUM, Strain/Indicator: TA1537, Metabolic Activation: RAT, LIVER, S-9, AROCLOR 1254, Method: PREINCUBATION) “inactive; negative”.
As to `O=CC(=O)c1ccccc1`, the mutagenic call is, setting by setting: (Test System: AMES SALMONELLA TYPHIMURIUM, Strain/Indicator: TA98, Metabolic Activation: HAMSTER, LIVER, S-9, AROCLOR 1254, Method: STANDARD PLATE) “active; positive”; under setting [1], “inactive; negative”; under setting [5], “active; positive”; under setting [6], “active; positive”; (Test System: AMES SALMONELLA TYPHIMURIUM, Strain/Indicator: TA98, Metabolic Activation: RAT, LIVER, S-9, PCB, Method: PREINCUBATION) “inactive; negative”; (Test System: AMES SALMONELLA TYPHIMURIUM, Strain/Indicator: TA100, Metabolic Activation: HAMSTER, LIVER, S-9, AROCLOR 1254, Method: STANDARD PLATE) “active; positive”. In addition, the mutagenic call reads like this: under setting [2], “active; positive”; under setting [7], “active; positive”; under setting [8], “active; positive”; (Test System: AMES SALMONELLA TYPHIMURIUM, Strain/Indicator: TA100, Metabolic Activation: RAT, LIVER, S-9, PCB, Method: PREINCUBATION) “inactive; negative”; (Test System: MOUSE LYMPHOMA, Strain/Indicator: L5178Y (TK+/TK-), Metabolic Activation: NONE, Method: SUSPENSION/PLATE) “active; positive”; (Test System: Mouse lymphoma, Strain/Indicator: L5178Y (tk+/tk-), Metabolic Activation: None, Method: Suspension/plate) “active; positive”. The mutagenic call (Test System: Mouse lymphoma, Strain/Indicator: L5178Y (tk+/tk-), Metabolic Activation: Rat, Liver, S-9, Aroclor 1254, Method: Suspension/plate) was “inactive; negative”.
Regarding `c1ccc2c(OC[C@@H]3CO3)cccc2c1`, the mutagenic call under setting [7] is “active; positive”.
Turning to `C[C@@H]1COc2c(N3CCN(C)CC3)c(F)cc3c(=O)c(C(=O)O)cn1c23`, the mutagenic call under setting [1] is “inactive; negative”; the mutagenic call (Test System: AMES SALMONELLA TYPHIMURIUM, Strain/Indicator: TA98, Metabolic Activation: RAT, LIVER, S-9, PHENOBARBITAL AND BETA-NAPHTHOFLAVONE, Method: PREINCUBATION) was “inactive; negative”; the mutagenic call under setting [2] is “inactive; negative”; the mutagenic call (Test System: AMES SALMONELLA TYPHIMURIUM, Strain/Indicator: TA100, Metabolic Activation: RAT, LIVER, S-9, PHENOBARBITAL AND BETA-NAPHTHOFLAVONE, Method: PREINCUBATION) was “inactive; negative”; the mutagenic call under setting [3] is “inactive; negative”; the mutagenic call (Test System: AMES SALMONELLA TYPHIMURIUM, Strain/Indicator: TA1535, Metabolic Activation: RAT, LIVER, S-9, PHENOBARBITAL AND BETA-NAPHTHOFLAVONE, Method: PREINCUBATION) is “inactive; negative”. Moreover, the mutagenic call under setting [4] is “inactive; negative”; the mutagenic call (Test System: AMES SALMONELLA TYPHIMURIUM, Strain/Indicator: TA1537, Metabolic Activation: RAT, LIVER, S-9, PHENOBARBITAL AND BETA-NAPHTHOFLAVONE, Method: PREINCUBATION) was “inactive; negative”; the mutagenic call (Test System: E.COLI, Strain/Indicator: WP2 UVRA, Metabolic Activation: NONE, Method: PREINCUBATION) is “inactive; negative”; the mutagenic call (Test System: E.COLI, Strain/Indicator: WP2 UVRA, Metabolic Activation: RAT, LIVER, S-9, PHENOBARBITAL AND BETA-NAPHTHOFLAVONE, Method: PREINCUBATION) was “inactive; negative”.
For `CC(C)(c1ccc(OCC(O)CO)cc1)c1ccc(OCC(O)CO)cc1` (stereo not given), the mutagenic call by setting is: under setting [5], “inactive; negative”; (Test System: AMES SALMONELLA TYPHIMURIUM, Strain/Indicator: TA98, Metabolic Activation: RAT LIVER S-9, PHENOBARBITAL/METHYLCHOLANTHRENE (4%), Method: STANDARD PLATE) “inactive; negative”; under setting [7], “inactive; negative”; (Test System: AMES SALMONELLA TYPHIMURIUM, Strain/Indicator: TA100, Metabolic Activation: RAT LIVER S-9, PHENOBARBITAL/METHYLCHOLANTHRENE (4%), Method: STANDARD PLATE) “inactive; negative”; (Test System: AMES SALMONELLA TYPHIMURIUM, Strain/Indicator: TA1535, Metabolic Activation: NONE, Method: STANDARD PLATE) “inactive; negative”; (Test System: AMES SALMONELLA TYPHIMURIUM, Strain/Indicator: TA1535, Metabolic Activation: RAT LIVER S-9, PHENOBARBITAL/METHYLCHOLANTHRENE (10%), Method: STANDARD PLATE) “inactive; negative”. Moreover, the mutagenic call is “inactive; negative” (Test System: AMES SALMONELLA TYPHIMURIUM, Strain/Indicator: TA1537, Metabolic Activation: NONE, Method: STANDARD PLATE) and “inactive; negative” (Test System: AMES SALMONELLA TYPHIMURIUM, Strain/Indicator: TA1737, Metabolic Activation: RAT LIVER S-9, PHENOBARBITAL/METHYLCHOLANTHRENE (10%), Method: STANDARD PLATE).
Take `O=C(O)Cc1ccc(O)c(O)c1`: the mutagenic call was “inactive; negative” (Test System: AMES SALMONELLA TYPHIMURIUM, Strain/Indicator: TA92, Metabolic Activation: NONE, Method: PREINCUBATION); “inactive; negative” (Test System: AMES SALMONELLA TYPHIMURIUM, Strain/Indicator: TA97, Metabolic Activation: NONE, Method: PREINCUBATION); “inactive; negative” under setting [2]; “active; positive” (Test System: AMES SALMONELLA TYPHIMURIUM, Strain/Indicator: TA102, Metabolic Activation: NONE, Method: PREINCUBATION); “active; positive” (Test System: AMES SALMONELLA TYPHIMURIUM, Strain/Indicator: TA104, Metabolic Activation: NONE, Method: PREINCUBATION); “inactive; negative” under setting [3]. Also, the mutagenic call under setting [4] is “inactive; negative” and the mutagenic call (Test System: CHINESE HAMSTER V-79, Strain/Indicator: V-79/6-THIOGUANINE, Metabolic Activation: NONE, Method: STANDARD PLATE) was “active; positive”.
Turning to `Fc1cccc(F)n1`, the mutagenic call is, setting by setting: (Test System: AMES SALMONELLA TYPHIMURIUM, Strain/Indicator: TA97, Metabolic Activation: NONE, Method: STANDARD PLATE) “inactive; negative”; (Test System: AMES SALMONELLA TYPHIMURIUM, Strain/Indicator: TA97, Metabolic Activation: RAT, LIVER, S-9, AROCLOR 1254, Method: STANDARD PLATE) “inactive; negative”; under setting [5], “inactive; negative”; under setting [6], “inactive; negative”; under setting [7], “inactive; negative”; under setting [8], “inactive; negative”. Also, the mutagenic call is “inactive; negative” (Test System: AMES SALMONELLA TYPHIMURIUM, Strain/Indicator: TA102, Metabolic Activation: NONE, Method: STANDARD PLATE) and “inactive; negative” (Test System: AMES SALMONELLA TYPHIMURIUM, Strain/Indicator: TA102, Metabolic Activation: RAT, LIVER, S-9, AROCLOR 1254, Method: STANDARD PLATE).

These data come from PubChem BioAssay AID1259407 (Chemical Carcinogenesis Research Information System (CCRIS), 2018).
